Reference: patent US7572444B2, “Binding proteins specific for human matriptase” (Amgen Fremont Inc., priority 2004, dated 2009)

Tests used:
[1] = test system: unknown protease present in the B cell culture supernatant; assay: QAR-MCA cleavage by unknown protease of B cell culture supernatant; assay type: biochemical; settings: QAR-MCA substrate
Description: (§1) The development of the assay method was complicated by the finding that an unknown protease was present in the B cell culture supernatant that was able to cleave the QAR-MCA substrate. […] This was advantageous as the background cleavage would no longer affect the ability to identify neutralizing antibodies against Matriptase. The supernatant also contained an unknown Matriptase inhibitor that necessitated a relatively high Matriptase concentration in the assay.

[2] = target: T1, catalytic domain of Matriptase (Homo sapiens, UniProt Q9Y5Y6); assay: Enzymatic assay with tripeptide QAR-MCA substrate (Tripeptide-MCA assay); assay type: biochemical; settings: at the concentration that inhibits the unknown protease
T1 sequence (Q9Y5Y6 615-855): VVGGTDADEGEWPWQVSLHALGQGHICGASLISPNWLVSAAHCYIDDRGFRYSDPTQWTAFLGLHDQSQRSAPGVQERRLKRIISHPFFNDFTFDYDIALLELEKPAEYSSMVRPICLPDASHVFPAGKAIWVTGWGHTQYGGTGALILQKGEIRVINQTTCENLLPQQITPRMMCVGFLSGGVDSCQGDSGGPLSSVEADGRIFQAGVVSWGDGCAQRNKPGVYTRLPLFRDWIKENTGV
Description: All 972 wells were then analyzed in an enzymatic assay using the catalytic domain of Matriptase and the tripeptide QAR-MCA (Peptides International Inc., Louisville, Ky.) as substrate. The cleavage of the QAR-MCA substrate by Matriptase causes the release of a methylcoumarin amide group (MCA) as amino-methyl coumarin (AMC). The free AMC can then be detected using a fluorescent reader as a measure of Matriptase activity.
as §1
The wells were determined to be positive based on their ability to inhibit Matriptase activity in two assays compared with average of the irrelevant control wells (enzyme, substrate and B cell culture supernatant) shown below. The data is shown as a percentage of the average of the negative control wells (enzyme and substrate) as in Table 3.

Ramos cells = assay: CDC assay; assay type: cell-based; settings: 10, 5, 2.5 and 1.25 μg/mL, 25% human sera, 1 hour; sc95/96 as IgG1 or IgG2
Description: In this experiment, 100,000 Ramos cells in 25 μL of media were added to the bottom of a 96-well plate. […] Each sample point was run in quadruplicate. After 10 minutes at room temperature, 50 μL of 50% human sera (25% final concentration) was added to the cells and incubated at 37 degrees Celsius for 1 hour. CellTiterGlo reagent (100 μL) was added to each well and allowed to incubate on the cells for 10 minutes.

Raji cells = assay: ADCC assay; assay type: cell-based, human; settings: 0.0001 to 1 μg/ml, NK effector cells, 4 hours
Description: Raji cells were used as target cells for the ADCC assay. To prepare the target cells, Raji cells were harvested and resuspended in media at 1.0×10^6 cells/ml. Calcein (Sigma C1359) was then added to a final concentration of 10 μM, and the cells were incubated for 45-60 minutes at 37° C., after which the Raji cells were pelleted by centrifugation at 1200 rpm for 10 minutes. The supernatant was discarded and the cells were resuspended in growth media. The centrifugation step was repeated, the cells were resuspended at a concentration of 1.0×10^4 cells in 75μL media and were then plated at 1.0×10^4 cells per well in a round bottom plate. […] The cells and antibody were incubated for 30 minutes at room temperature.
The effector cells for the ADCC assay were prepared as follows. […] The cells were counted to determine the concentration of natural killer (NK) cells, diluted to a concentration of 9.0×10^4 cells per 75 μL, and then 75 μL of these cells were then added to the Raji cells from the step above and then incubated for 4 hours at 37° C. The plate was then centrifuged at 1200 rpm for 5 minutes, and 100 μL of the supernatant was transferred to a flat, black clear-bottom 96 well plate and subsequently read on a Victor plate reader using a 490 nm excitation and 530 nm emission wavelength.

[3] = test system: Ramos tumor-bearing SCID mice; assay: Ramos hind-limb paralysis model; assay type: in vivo; settings: 5 mg/kg, d1, i.p., 1×10^6 Ramos cells i.v.
Description: The ability of sc95/96 to modulate the invasive and/or metastatic properties of Ramos cells was evaluated in a rodent hind-limb paralysis model. Without therapeutic intervention, SCID mice inoculated systemically with Ramos B lymphoma cells develop hind limb paralysis at ˜25 days post injection, presumably related to the accumulation of tumor cells in the spinal cord and/or brain tissues (dijoseph et al., 2004, Clinical Cancer Research 10: 8620-8629).
In this experiment, 7-8 week old C.B-17 SCID male mice were inoculated with 1×10^6 Ramos cells via tail vein injection. […] Groups 1-3 thereafter received weekly 25 mg/kg injections of antibody or an equivalent volume of PBS. Animals were given food and water ad libidum and monitored daily for signs of paralysis. Individual mice were euthanized when unable to move due to hind limb paralysis.

Molecule | inhibition of activity of the unknown protease [1] | effect on activity of Matriptase [2] | CDC on Ramos cells (Ramos cells) | Raji cell lysis by ADCC (Raji cells) | Median survival time [3]
O=S(=O)(F)Cc1ccccc1 [PMSF, phenylmethyl sulfonyl fluoride] | completely inhibit | without affecting the activity of Matriptase | – | – | –
Rituximab [reference compound] | – | – | did demonstrate CDC activity | induce Raji cell lysis by ADCC | greater than 45 days
